# Results: patent publication US20190030018A1 (Celgene Corporation, priority 2017, published 2019)
# System: 563 solid tumor cell lines
# Assay: Luminex assay in PRISM, 5 days treatment (AUC)
# Format: cell-based
# Parameters: AUC: scale not given here
# Experimental: The AUC values provided in Table 80 below were calculated based on the Median Fluorescent Intensity values, the primary read out of the Luminex assay in PRISM. The following parameters were used in this assay: • 8 point dose was used in triplicate • max concentration of 10 μM was used with serial 4-fold dilutions (low of […]) • 563 adherent cell lines in 23 pools. • treatment duration was 5 days.
smiles,measurement,setting,value
"O=C1CCC(N2Cc3cc(CNC(=O)C(F)(F)c4ccc(Cl)cc4)ccc3C2=O)C(=O)N1 (stereo not shown) [Compound 1, 2-(4-chlorophenyl)-N-((2-(2,6-dioxopiperidin-3-yl)-1-oxoisoindolin-5-yl)methyl)-2,2-difluoroacetamide]",AUC,MON_SOFT_TISSUE,0.789
same,AUC,MPP89_PLEURA,0.822
same,AUC,NB1_AUTONOMIC_GANGLIA,0.096
same,AUC,NCIH23_LUNG,0.951
same,AUC,NCIH28_PLEURA,0.936
same,AUC,NCIH226_LUNG,0.637
same,AUC,NCIH322_LUNG,0.714
same,AUC,NCIH441_LUNG,0.755
same,AUC,NCIH446_LUNG,0.820
same,AUC,NCIH460_LUNG,0.917
same,AUC,NCIH520_LUNG,0.562
same,AUC,NCIH522_LUNG,0.974
same,AUC,NCIH596_LUNG,0.893
same,AUC,NCIH647_LUNG,0.957
same,AUC,NCIH650_LUNG,0.854
same,AUC,NCIH661_LUNG,0.819
same,AUC,NCIH747_LARGE_INTESTINE,0.836
same,AUC,NCIH838_LUNG,0.834
same,AUC,NCIH841_LUNG,0.848
same,AUC,NCIH1048_LUNG,0.116
same,AUC,NCIH1299_LUNG,0.806
same,AUC,NCIH1339_LUNG,0.815
same,AUC,NCIH1355_LUNG,0.878
same,AUC,NCIH1373_LUNG,0.959
same,AUC,NCIH1435_LUNG,0.862
same,AUC,NCIH1437_LUNG,0.882
same,AUC,NCIH1563_LUNG,0.140
same,AUC,NCIH1568_LUNG,0.790
same,AUC,NCIH1573_LUNG,0.995
same,AUC,NCIH1581_LUNG,0.552
same,AUC,NCIH1623_LUNG,0.997
same,AUC,NCIH1648_LUNG,0.828
same,AUC,NCIH1650_LUNG,0.835
same,AUC,NCIH1693_LUNG,0.949
same,AUC,NCIH1703_LUNG,0.879
same,AUC,NCIH1793_LUNG,0.290
same,AUC,NCIH1915_LUNG,0.876
same,AUC,NCIH1944_LUNG,0.911
same,AUC,NCIH1975_LUNG,0.866
same,AUC,NCIH2009_LUNG,0.760
same,AUC,NCIH2030_LUNG,0.839
same,AUC,NCIH2073_LUNG,0.878
same,AUC,NCIH2077_LUNG,0.855
same,AUC,NCIH2087_LUNG,0.866
same,AUC,NCIH2110_LUNG,0.837
same,AUC,NCIH2126_LUNG,0.820
same,AUC,NCIH2170_LUNG,0.887
same,AUC,NCIH2172_LUNG,0.794
same,AUC,NCIH2196_LUNG,0.870
same,AUC,NCIH2228_LUNG,0.851
same,AUC,NCIH2347_LUNG,0.324
same,AUC,NCIH2444_LUNG,0.620
same,AUC,NCIH2452_PLEURA,0.843
same,AUC,NCIN87_STOMACH,0.881
same,AUC,NUGC3_STOMACH,0.261
same,AUC,NUGC4_STOMACH,0.839
same,AUC,OAW28_OVARY,0.814
same,AUC,OC314_OVARY,0.915
same,AUC,OC316_OVARY,0.872
same,AUC,OE19_OESOPHAGUS,0.808
same,AUC,OE21_OESOPHAGUS,0.893
same,AUC,OE33_OESOPHAGUS,0.847
same,AUC,ONS76_CENTRAL_NERVOUS_SYSTEM,0.811
same,AUC,OSRC2_KIDNEY,0.842
same,AUC,OV7_OVARY,0.597
same,AUC,OV56_OVARY,0.874
same,AUC,OV90_OVARY,0.939
same,AUC,OVCAR8_OVARY,0.844
same,AUC,OVISE_OVARY,0.630
same,AUC,OVKATE_OVARY,0.851
same,AUC,OVSAHO_OVARY,0.617
same,AUC,OVTOKO_OVARY,0.907
same,AUC,PANC1_PANCREAS,0.781
same,AUC,PANC0203_PANCREAS,0.927
same,AUC,PANC0327_PANCREAS,0.813
same,AUC,PANC0403_PANCREAS,0.877
same,AUC,PANC0504_PANCREAS,0.245
same,AUC,PANC1005_PANCREAS,0.540
same,AUC,PATU8902_PANCREAS,0.145
same,AUC,PATU8988T_PANCREAS,0.075
same,AUC,PC3_PROSTATE,0.735
same,AUC,PC14_LUNG,0.500
same,AUC,PECAPJ15_UPPER_AERODIGESTIVE_TRACT,0.877
same,AUC,PECAPJ41CLONED2_UPPER_AERODIGESTIVE_TRACT,0.719
same,AUC,PECAPJ49_UPPER_AERODIGESTIVE_TRACT,0.843
same,AUC,PEDS005TADH_KIDNEY,0.448
same,AUC,PEDS015T_SOFT_TISSUE,0.814
same,AUC,PK1_PANCREAS,0.859
same,AUC,PK45H_PANCREAS,0.843
same,AUC,PK59_PANCREAS,0.778
same,AUC,PLCPRF5_LIVER,0.833
same,AUC,PSN1_PANCREAS,0.820
same,AUC,QGP1_PANCREAS,0.976
same,AUC,RCC10RGB_KIDNEY,0.801
same,AUC,RDES_BONE,0.571
same,AUC,RD_SOFT_TISSUE,0.769
same,AUC,RERFLCAD1_LUNG,0.782
same,AUC,RERFLCAD2_LUNG,0.874
same,AUC,RERFLCAI_LUNG,0.859
same,AUC,RERFLCKJ_LUNG,0.824
same,AUC,RKN_SOFT_TISSUE,0.988
same,AUC,RKO_LARGE_INTESTINE,0.847
same,AUC,RL952_ENDOMETRIUM,0.403
same,AUC,RMUGS_OVARY,0.857
same,AUC,RPMI7951_SKIN,0.786
same,AUC,RT112_URINARY_TRACT,0.766
same,AUC,RVH421_SKIN,0.839
same,AUC,S117_SOFT_TISSUE,0.866
same,AUC,SBC5_LUNG,0.948
same,AUC,SCC25_UPPER_AERODIGESTIVE_TRACT,0.782
same,AUC,SF126_CENTRAL_NERVOUS_SYSTEM,0.862
same,AUC,SF295_CENTRAL_NERVOUS_SYSTEM,0.917
same,AUC,SF539_CENTRAL_NERVOUS_SYSTEM,0.888
same,AUC,SH4_SKIN,0.537
same,AUC,SH10TC_STOMACH,0.886
